From ChEMBL document CHEMBL1201862, “PubChem BioAssay data set” (2004)
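Interpolation was linear, between the two tested concentrations surrounding the appropriate level; five concentrations were tested over 48 hours in 96-well plates. The concentration for 50% growth inhibition is given as GI50.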 The source made the active and inactive calls. Rule as the data show it: active = GI50 up to about 1.1 µM and inactive = higher. Peptide text beside a SMILES is read from it. * marks the point of attachment. Cbz = O=C(OCc1ccccc1)*; CH2Cl = ClC*

What was measured:
Experiment in all cases: NCI anticancer screen, dose series, 48 h
[1] = test system: A498
[2] = test system: HL-60
[3] = test system: HCT-15
[4] = test system: OVCAR-5
[5] = test system: A549
[6] = test system: CAKI-1
[7] = test system: MCF7
[8] = test system: Malme-3M
[9] = test system: SNB-75
[10] = test system: SW-620
[11] = test system: SK-MEL-28
[12] = test system: SK-OV-3
[13] = test system: DU-145
[14] = test system: MDA-MB-435
[15] = test system: NCI-H23
[16] = test system: SF-295
[17] = test system: HCT-116
[18] = test system: SF-539
[19] = test system: RXF 393

| Compound | GI50 [1] | GI50 [2] | GI50 [3] [µM] | GI50 [4] | GI50 [5] | GI50 [6] | GI50 [7] | GI50 [8] | GI50 [9] | GI50 [10] | GI50 [11] | GI50 [12] | GI50 [13] | GI50 [14] | GI50 [15] | GI50 [16] | GI50 [17] | GI50 [18] | GI50 [19] |
| --- | --- | --- | --- | --- | --- | --- | --- | --- | --- | --- | --- | --- | --- | --- | --- | --- | --- | --- | --- |
| COc1cc(/C=C/C=C2\CC/C(=C\C=C\c3ccc(O)c(OC)c3)C2=O)ccc1O | > 100 µM (inactive) | 7.41 µM (inactive) | > 100 | > 100 µM (inactive) | > 100 µM (inactive) | > 100 µM (inactive) | > 100 µM (inactive) | > 85.7 µM (inactive) | > 100 µM (inactive) | > 100 µM (inactive) | > 100 µM (inactive) | > 22.2 µM (inactive) | > 100 µM (inactive) | > 52.4 µM (inactive) | > 73.1 µM (inactive) | > 100 µM (inactive) | > 100 µM (inactive) | > 100 µM (inactive) | 3.87 µM (inactive) |
| CC(C)CC(NC(=O)OCc1ccccc1)C(=O)NC(Cc1ccccc1)C(=O)CCl (stereo not drawn) (Cbz-Leu-Phe-CH2Cl; configuration not given here) | 23.6 µM (inactive) | 1.33 µM (inactive) | 1.66 | 3.71 µM (inactive) | 15.9 µM (inactive) | 5.14 µM (inactive) | 2.55 µM (inactive) | 1.92 µM (inactive) | 4.78 µM (inactive) | 1.57 µM (inactive) | 1.85 µM (inactive) | 11.4 µM (inactive) | > 100 µM (inactive) | 2.34 µM (inactive) | 2.03 µM (inactive) | 17.5 µM (inactive) | 1.68 µM (inactive) | 3.32 µM (inactive) | 1.7 µM (inactive) |
| O=C(N/N=C\c1ccc([N+](=O)[O-])cc1)Nc1cccc2ccccc12 | 14 µM (inactive) | > 31.6 µM (inactive) | > 50.5 | > 100 µM (inactive) | > 49.9 µM (inactive) | 15.3 µM (inactive) | > 43.7 µM (inactive) | 27.7 µM (inactive) | 3.23 µM (inactive) | > 100 µM (inactive) | > 100 µM (inactive) | 4.5 µM (inactive) | 24.9 µM (inactive) | > 100 µM (inactive) | 18.8 µM (inactive) | 7.28 µM (inactive) | 28.5 µM (inactive) | 10.7 µM (inactive) | 11 µM (inactive) |
| COC(=O)CNC(=O)CCC(C)[C@H]1CCC2C3C(C[C@H](OC(C)=O)[C@@]21C)[C@@]1(C)CCC2(C[C@H]1C[C@H]3OC(C)=O)OOC1(CC[C@]3(C)C4C[C@H](OC(C)=O)[C@@]5(C)C(CC[C@@H]5C(C)CCC(=O)NCC(=O)OC)C4[C@H](OC(C)=O)C[C@@H]3C1)OO2 (stereo partly specified) | 12 µM (inactive) | 1.11 µM (active) | 1.33 | 2.03 µM (inactive) | 0.914 µM (active) | 2.15 µM (inactive) | 2.71 µM (inactive) | 0.782 µM (active) | 1.64 µM (inactive) | 1.71 µM (inactive) | 1.61 µM (inactive) | 5.37 µM (inactive) | 0.933 µM (active) | 2.3 µM (inactive) | 1.03 µM (active) | 5.65 µM (inactive) | 1.99 µM (inactive) | 0.959 µM (active) | 0.931 µM (active) |
| C=CCN1C(=O)/C(=C/c2ccco2)N=C1SC/C=C/C | 43.3 µM (inactive) | 28.2 µM (inactive) | 35.7 | > 100 µM (inactive) | 49.3 µM (inactive) | 90.8 µM (inactive) | 18.6 µM (inactive) | 44.4 µM (inactive) | 33.8 µM (inactive) | 43.9 µM (inactive) | 46.1 µM (inactive) | > 100 µM (inactive) | > 100 µM (inactive) | 31.8 µM (inactive) | 50.9 µM (inactive) | 40.4 µM (inactive) | 27.5 µM (inactive) | > 100 µM (inactive) | 29.2 µM (inactive) |
| O=C(Sc1c(-c2ccccc2)c(=O)n(-c2ccccc2)c(=S)n1-c1ccccc1)c1ccc(Cl)cc1 | 98.9 µM (inactive) | > 100 µM (inactive) | > 100 | > 100 µM (inactive) | > 100 µM (inactive) | > 100 µM (inactive) | 74.3 µM (inactive) | > 100 µM (inactive) | > 100 µM (inactive) | > 100 µM (inactive) | > 100 µM (inactive) | > 100 µM (inactive) | > 100 µM (inactive) | > 100 µM (inactive) | > 100 µM (inactive) | > 100 µM (inactive) | > 100 µM (inactive) | > 100 µM (inactive) | > 100 µM (inactive) |
| NC1=C(N2CCOCC2)C(=O)NC2=N/C(=C\c3ccccc3)C(=O)N21 | 64.3 µM (inactive) | 17.9 µM (inactive) | 84.3 | > 100 µM (inactive) | > 100 µM (inactive) | > 100 µM (inactive) | > 100 µM (inactive) | > 100 µM (inactive) | > 100 µM (inactive) | > 100 µM (inactive) | > 100 µM (inactive) | > 100 µM (inactive) | > 100 µM (inactive) | > 100 µM (inactive) | > 100 µM (inactive) | 3.87 µM (inactive) | > 100 µM (inactive) | 76.7 µM (inactive) | > 100 µM (inactive) |
| C=CC(c1ccccc1)[C@@]1(OC(C)=O)C(=O)C(=O)OC1C1COC(C)(C)O1 (stereo partly specified) | 19.7 µM (inactive) | 2.11 µM (inactive) | 9.62 | 18.5 µM (inactive) | 18 µM (inactive) | 4.72 µM (inactive) | 5.68 µM (inactive) | 15.2 µM (inactive) | 14.5 µM (inactive) | 8.13 µM (inactive) | 8.32 µM (inactive) | 18.1 µM (inactive) | 21.2 µM (inactive) | 13.9 µM (inactive) | 18.2 µM (inactive) | 16.7 µM (inactive) | 11.1 µM (inactive) | 10.4 µM (inactive) | 4.68 µM (inactive) |
| Cc1ccc(C2NC(=O)c3ccccc3N2)c(C)c1 (stereo unspecified) | 5.04 µM (inactive) | 0.453 µM (active) | 1.08 | 8.43 µM (inactive) | 5.65 µM (inactive) | 2.56 µM (inactive) | 1.07 µM (active) | 1.69 µM (inactive) | 1.92 µM (inactive) | 1.05 µM (active) | 6.58 µM (inactive) | 2.22 µM (inactive) | 5.71 µM (inactive) | 0.191 µM (active) | 7.14 µM (inactive) | 2.15 µM (inactive) | 2.39 µM (inactive) | 1.61 µM (inactive) | 3.91 µM (inactive) |
| CC(C)Oc1c(-c2ccc(F)cc2)c(O)c2c3c1oc(=O)n3C=CC2C (stereo unspecified) | 15 µM (inactive) | 10.4 µM (inactive) | 14.9 | 24.7 µM (inactive) | 13 µM (inactive) | 14.2 µM (inactive) | 11.3 µM (inactive) | 22.3 µM (inactive) | 14.8 µM (inactive) | 14.3 µM (inactive) | 15.7 µM (inactive) | 24 µM (inactive) | 13.1 µM (inactive) | 17.9 µM (inactive) | 11.8 µM (inactive) | 15.2 µM (inactive) | 12.9 µM (inactive) | 13.4 µM (inactive) | 14 µM (inactive) |
| CC1CCc2c(c(CC3CC(=O)NC(=O)C3)nn2-c2ccccc2)C1 (stereo unspecified) | > 100 µM (inactive) | > 100 µM (inactive) | > 100 | > 100 µM (inactive) | > 100 µM (inactive) | > 100 µM (inactive) | > 100 µM (inactive) | > 100 µM (inactive) | > 100 µM (inactive) | > 100 µM (inactive) | > 100 µM (inactive) | > 100 µM (inactive) | > 100 µM (inactive) | > 100 µM (inactive) | > 100 µM (inactive) | > 100 µM (inactive) | > 100 µM (inactive) | > 100 µM (inactive) | > 100 µM (inactive) |
| COc1ccc2oc(=N)c(C(=O)NCc3ccccc3)cc2c1 | 15.2 µM (inactive) | > 100 µM (inactive) | 21.1 | 43.6 µM (inactive) | 34 µM (inactive) | 34.6 µM (inactive) | 24 µM (inactive) | 15.5 µM (inactive) | 15.3 µM (inactive) | 19 µM (inactive) | 26.2 µM (inactive) | 20.3 µM (inactive) | 24.3 µM (inactive) | 14.5 µM (inactive) | 18.1 µM (inactive) | 24.7 µM (inactive) | 30.1 µM (inactive) | 25.2 µM (inactive) | 16.8 µM (inactive) |
| CC(NC(=O)C(Cc1ccc(OC(=O)c2ccccc2)cc1)NC(=O)OC(C)(C)C)C(=O)NCC(=O)NC(Cc1ccccc1)NC(=O)OCc1ccccc1 (stereo unspecified) | 28.5 µM (inactive) | > 100 µM (inactive) | > 100 | > 100 µM (inactive) | > 100 µM (inactive) | > 100 µM (inactive) | > 100 µM (inactive) | > 100 µM (inactive) | > 100 µM (inactive) | > 100 µM (inactive) | > 100 µM (inactive) | > 100 µM (inactive) | > 100 µM (inactive) | > 100 µM (inactive) | > 100 µM (inactive) | > 100 µM (inactive) | > 100 µM (inactive) | > 100 µM (inactive) | > 100 µM (inactive) |
| Cc1ccc(C)c(COCCOCn2ccc(N)nc2=O)c1 | > 100 µM (inactive) | 18.5 µM (inactive) | > 100 | > 100 µM (inactive) | > 100 µM (inactive) | > 100 µM (inactive) | > 100 µM (inactive) | > 100 µM (inactive) | > 100 µM (inactive) | > 100 µM (inactive) | > 100 µM (inactive) | > 100 µM (inactive) | > 100 µM (inactive) | > 100 µM (inactive) | > 100 µM (inactive) | > 100 µM (inactive) | > 100 µM (inactive) | > 100 µM (inactive) | > 100 µM (inactive) |
